Experimental data taken from patent US12357561B2, “Compositions and uses of alpha-adrenergic agents” (LEVATION PHARMA LTD., priority 2016, dated 2025).

System: New Zealand rabbits
Assay: Ocular observations after injection of oxymetazoline solutions into the post-septal fat pad of rabbits
Assay type: in vivo, rabbit
Settings: for Palpebral Reflex / Threat Test: 100 μl post-septal fat pad injection; for Palpebral Reflex / Threat Test / eyelid closure (notes): Right Eye
Procedure: Rabbits without ocular pathology received oxymetazoline solutions by ocular injection. The evolution was tested postoperative, 1, 2, 3, 7, 10, and 14 day after oxymetazoline solutions administration. Eyelids were analyzed by histology at the end of the experiment. Endpoints included inflammation, fibrosis, pre- and post-septal fat, status of levator muscle and Müller's muscle, presence of vascular injury or necrosis or ischemic injury to eyelid tissues.
• Animals: female New Zealand rabbits (2.5-3 kg) • Sedation: atropine sulfate and midazolam IV (ear vein) • Anesthesia: induction with Propofol 1% (10 mg/kg) by ear vein • Maintenance with isoflurane (inhalant anesthesia) • Oxymetazoline solutions • Slit lamp Method Baseline Measures (1st Phase) • I. Animals (n=2); 2.5-3 kg New Zealand rabbit • II. Without sedation and anesthesia • III. Photographic record with a ruler (to serve as a standard measure of distance). Three sets of photos per measurements taken in dim lighting to keep rabbits from squinting • IV. 50 μl of 10% phenylephrine was administered via topical into the right eye (RE) • V. Photographic record with a ruler. Three sets of photos per measurements. After 20-30 minutes post-dose. • VI. Animals returned to animal housing. Test Article (Oxymetazoline Solutions) (2nd Phase) • I. Animals (n=3/each group); 2.5-3 kg New Zealand rabbit • II. Photographic record with a ruler (to serve as a standard measure of distance). Three sets of photos per measurements taken in dim lighting to keep rabbits from squinting. • III. Sedation with atropine sulfate and midazolam • IV. Induction with Propofol • V. Maintenance with isoflurane • VI. Ocular injection of oxymetazoline solutions or PBS (phosphate-buffered saline) • a. Group A: oxymetazoline 1 mg/ml in PBS (RE) and PBS (LE) • b. Group B: oxymetazoline 3 mg/ml in PBS (RE) and PBS (LE) • c. Group C: oxymetazoline 10 mg/ml in PBS (RE) and PBS (LE) All animals were administered 100 μI (0.1 ml) of the oxymetazoline solution (RE) or PBS vehicle control (LE) via an injection into the post-septal fat pad, adjacent to Müller's muscle of both eyelids on Day 0. For this injection, a 30G needle was used; test article was administered at least 4 mm away from the site of the needle entry to prevent reflux of fluid through the hole. • VII. Follow-up. • VIII. Euthanized animals 14 days after the injection of oxymetazoline solutions to process the eyelids tissues. • a. Harvest both eyelids from each animal and store in formalin • b. Histology (H/E staining) Follow-Up Follow-up included: • Eyelid retraction/ptosis measurements & digital photos with eyes directly facing camera and a ruler in the frame of the photograph to standardize distances. Three sets of photos per measurement taken in dim lighting to keep rabbits from squinting. • Slit-lamp biomicroscopy • Daily general health observations • Body weights prior to dosing and prior to sacrifice Study Variables • I. Palpebral fissure distance • II. Margin reflex distance 1 Results • Group A (1 mg/ml) • Notes: • pre-injection.
Group B (3 mg/ml) Notes: • pre-injection.

[1] = Group A 1 mg/ml in PBS, Day 2, animals #1/#2/#3
[2] = Group A 1 mg/ml in PBS, Day 3 morning, animals #1/#2/#3
[3] = Group A 1 mg/ml, Day 2 (3 h post-injection)
[4] = Group B 3 mg/ml in PBS, Day 2, animals #1/#2
[5] = Group B 3 mg/ml in PBS, Day 3 afternoon, animals #1/#2
[6] = Group B 3 mg/ml in PBS, Day 3 morning, animals #1/#2
[7] = Group B 3 mg/ml in PBS, Day 4 morning, animals #1/#2
[8] = Group B 3 mg/ml, Day 2 (3 h post-injection)

`Cc1cc(C(C)(C)C)c(O)c(C)c1CC1=NCCN1` [oxymetazoline] was tested, and the “Palpebral Reflex” value [1] was “Abolished/Abolished/”, the “Threat Test” value [1] was “Abolished/Abolished/” and the “Threat Test” value (Group A 1 mg/ml in PBS, Day 3 afternoon, animals #1/#2/#3) was “Delayed/Delayed/Delayed”. For the same compound, the “Palpebral Reflex” value [2] was “Delayed/Delayed/Delayed”, the “Threat Test” value [2] was “Abolished/Abolished/” and the “Threat Test” value (Group A 1 mg/ml in PBS, Day 4 afternoon, animals #1/#2/#3) was “Delayed/Delayed/Delayed”. For the same compound, the “Threat Test” value (Group A 1 mg/ml in PBS, Day 4 morning, animals #1/#2/#3) was “Delayed/Delayed/Delayed”, the “ocular discomfort (notes)” value [3] was “Animal show ocular discomfort” and the “eyelid closure (notes)” value [3] was “pressure applied to close eyelid”. The “eyelid closure (notes)” value (Group A 1 mg/ml, Day 3 morning) was “pressure applied to close eyelid”, the “Palpebral Reflex” value [4] was “Abolished/Abolished” and the “Threat Test” value [4] was “Abolished/Abolished”. The “Palpebral Reflex” value [5] was “Delayed/Delayed”, the “Threat Test” value [5] was “Abolished/Abolished” and the “Palpebral Reflex” value [6] was “Delayed/Delayed”. The “Threat Test” value [6] was “Abolished/Abolished”, the “Threat Test” value (Group B 3 mg/ml in PBS, Day 4 afternoon, animals #1/#2) was “Delayed/Delayed” and the “Palpebral Reflex” value [7] was “Delayed/Delayed”. For the same compound, the “Threat Test” value [7] was “Delayed/Delayed”, the “Threat Test” value (Group B 3 mg/ml in PBS, Day 5, animals #1/#2) was “Delayed/” and the “ocular discomfort (notes)” value [8] was “Animal show ocular discomfort”. The “eyelid closure (notes)” value [8] was “pressure applied to close eyelid”, the “eyelid closure (notes)” value (Group B 3 mg/ml, Day 3 afternoon) was “pressure applied to close eyelid” and the “eyelid closure (notes)” value (Group B 3 mg/ml, Day 3 morning) was “pressure applied to close eyelid”. For the same compound, the “eyelid closure (notes)” value (Group B 3 mg/ml, Day 4 morning) was “pressure applied to close eyelid”.
